# Results taken from ChEMBL document CHEMBL1159015, “Isolation of the bioactive terpene 7-deacetoxy-olepupuane from the temperate marine sponge Dysidea sp” (J Nat Prod, 1992).
# Test system: P388
# Experiment: Cytotoxicity against mouse P388 cells
# Format: functional, cell-based
smiles,measurement,value
CC(=O)O[C@@H]1OC=C2CC[C@H]3C(C)(C)CCC[C@]3(C)[C@H]21,IC50,16.4 mg/L
